tested on: HIV-1 (IIIB) in MT-4 cells; assay: microbe, parasite or virus in culture; format: cell-based; details: Human immunodeficiency virus 1, IIIB, MT4, MT-4 cells

Structure (SMILES) | EC50 [µM]
CC(C)(C)C[C@]1(c2ccc(-c3cnn(C(F)F)c3)cc2)NC(=N)N([C@H](COC(=O)NC2(C(F)(F)F)CC2)c2ccc(F)c(-n3ncnc3C(F)F)c2)C1=O [Compound 380] | 0.0292
CC(C)(C)C[C@]1(c2ccc(-c3cnn(C(F)F)c3)cc2)NC(=N)N([C@H](COC(=O)NC2CC2)c2ccc(Cl)c(-c3nccc(=O)[nH]3)c2)C1=O [Compound 17] | 0.556
CC(C)(C)C[C@]1(c2ccc(-c3cnn(C(F)F)c3)cc2)NC(=N)N([C@H](COC(=O)NC(C)(C)C(F)F)c2ccc(F)c(-c3ncnn3C(F)F)c2)C1=O [Compound 124] | 0.0653
CC(C)(C)C[C@]1(c2ccc(-c3cnn(C(C)(C)C)n3)cc2)NC(=N)N([C@H](COC(=O)NC2(C(F)(F)F)CC2)c2ccc(Cl)c(-n3ncnc3C(F)F)c2)C1=O [Compound 371] | 0.0267
CC(C)(CC#N)C[C@]1(c2ccc(-c3cnn(C4CC4)n3)cc2)NC(=N)N([C@H](COC(=O)NC2(C(F)(F)F)CC2)c2ccc(Cl)c(-n3ncnc3C(F)F)c2)C1=O [Compound 362] | 0.0364
CC(C)(C)C[C@]1(c2ccc(-c3cnn(C4CC4)c3)cc2)NC(=N)N([C@H](COC(=O)NC2(C(F)(F)F)CC2)c2ccc(Cl)c(-c3ncnn3C(F)F)c2)C1=O [Compound 164] | 0.0165
CC(C)(C)C[C@]1(c2ccc3ncc(Br)cc3c2)NC(=N)N([C@H](COC(=O)NC(C)(C)C(F)F)c2ccc(Cl)c(-n3ncnc3C(F)F)c2)C1=O [Compound 327] | 0.0307
CC(C)(C)C[C@]1(c2ccc(-c3cn(C4CC4)nn3)cc2)NC(=N)N([C@H](COC(=O)NC2(C(F)(F)F)CC2)c2ccc(Cl)c(-n3ncnc3C(F)F)c2)C1=O [Compound 232] | 0.0182
CC(C)(C#N)C[C@]1(c2ccc(-c3cnn(C(F)F)c3)cc2)NC(=N)N([C@H](COC(=O)NC2(C(F)(F)F)CC2)c2ccc(Cl)c(-n3ncnc3C(F)F)c2)C1=O [Compound 336] | 0.0747
CC(C)(C)C[C@]1(c2ccc(-c3cnn(C(F)F)c3)cc2)NC(=N)N([C@H](COC(=O)NC2(C(F)(F)F)CC2)c2ccc(-n3ncnc3C(F)F)c(F)c2)C1=O [Compound 379] | 0.134

same assay, conditions: MT-4 cells; read-out: MT4 EC50

Structure (SMILES) | EC50 [µM]
[H]/N=C1\N[C@](CC(C)(C)C)(c2ccc(-c3cnn(C(F)F)c3)cc2F)C(=O)N1[C@H](COC(=O)NC1CC1)c1ccc(Cl)c(-c2ncn[nH]2)c1 [Compound 11] | 0.0355
CC(C)(C)C[C@]1(c2ccc(-c3cnn(C(F)F)c3)c(F)c2)NC(=N)N([C@H](COC(=O)NCC(C)(F)F)c2ccc(Cl)c(-n3ncnc3C(F)F)c2)C1=O [Compound 299] | 0.013
CC(C)(C)C[C@]1(c2ccc(-c3cnccn3)cc2)NC(=N)N([C@H](COC(=O)NC2(C(F)(F)F)CC2)c2ccc(Cl)c(-c3ncn[nH]3)c2)C1=O [Compound 26] | 0.102

tested on: not listed separately; assay: Liver microsomal stability, human; format: in vitro ADME; details: liver microsomes, read-out: Half-lives
Protocol: Test compounds and one control compound (verapamil) were tested in 3 different species in duplicate sets.
Test compound concentration: 1 uM; Protein concentration: 0.5 mg/mL (for dog, rat, and human liver microsomes); Cofactor: NADPH-Regenerating system (NRS) solution; Time-points: 2, 12, 25, 45, and 65 minutes.
Reaction Composition (in Each Incubation Well) Contains:
At an incubation temperature of 37° C., the reaction was started with addition of NADPH Regeneration System, at each time point, 25 uL of the reaction mixture was removed and added to a plate with 225 uL quenching solution (50% MeOH, 25% ACN, 25% H2O, and 200 nM labetalol as internal standard). After plates were vortexed, they were centrifuged for 30 minutes to remove proteins. About 100 μL supernatant was removed to a new plate and diluted with 150 μL water. About 20 μL of the mixture was injected into LC/MS/MS system to monitor the compound's response. In vitro measured t½ was used to calculate Clint values.

half-life at 1 uM [h] | Structure (SMILES)
≥ 6.58 | CC(C)(C)C[C@]1(c2ccc(-c3cnn(C(F)F)c3)cc2)NC(=N)N([C@H](COC(=O)NC2(C(F)(F)F)CC2)c2ccc(F)c(-n3ncnc3C(F)F)c2)C1=O [Compound 380]
≥ 6.58 | CC(C)(C)C[C@]1(c2ccc(-c3cnn(C(F)F)c3)cc2)NC(=N)N([C@H](COC(=O)NC2CC2)c2ccc(Cl)c(-c3nccc(=O)[nH]3)c2)C1=O [Compound 17]
0.433 to 1.78 | COC(=O)N[C@H](C(=O)N[C@@H](Cc1ccccc1)[C@@H](O)CN(Cc1ccc(-c2ccccn2)cc1)NC(=O)[C@@H](NC(=O)OC)C(C)(C)C)C(C)(C)C [atazanavir, methyl N-[(2S)-1-[2-[(2S,3S)-2-hydroxy-3-[[(2S)-2-(methoxycarbonylamino)-3,3-dimethylbutanoyl]amino]-4-phenylbutyl]-2-[(4-pyridin-2-ylphenyl)methyl]hydrazinyl]-3,3-dimethyl-1-oxobutan-2-yl]carbamate, reference compound]
≥ 6.58 | CC(C)(C)C[C@]1(c2ccc(-c3cnn(C(F)F)c3)cc2)NC(=N)N([C@H](COC(=O)N[C@@H]2C[C@H]2C(F)(F)F)c2ccc(Cl)c(-n3ncnc3C(F)F)c2)C1=O (single isomer, unassigned) [Compound 331]
≥ 6.58 | CC(C)(C#N)C[C@]1(c2ccc(-c3cnn(C(F)F)c3)cc2)NC(=N)N([C@H](COC(=O)NC2(C(F)(F)F)CC2)c2ccc(Cl)c(-n3ncnc3C(F)F)c2)C1=O [Compound 336]
